Converted amounts (≈) assume the structure as drawn.
Columns and labels:
CCD-841 cells = assay: MTT cytotoxicity assay, CCD-841 normal colon cells; format: cell-based; conditions: Homo sapiens, CCD-841 non cancerous cells
Procedure: (§1) Cytotoxicity property of Dis against HCT-116 and CCD-841 cells were measured by MTT assay as described by Mossman[77]. Briefly, cells were treated with different concentration of Dis and 5-Fu (positive control) with serial dilution factor of 2 for 8 concentrations in 96 well-plate for different time points (24 h, 48 h and 72 h). Subsequently at the end of each time point 20 µl of MTT (5 mg/ml, Affymetrix,Cleveland, OH, USA) were added to each well followed by 4 h incubation. The solutions were aspirated after 4 h and 100 µl of DMSO were added to each well. Absorbance for each well was read at 570 nm as measured by using microplate reader (Tecan Infinite multimode, Männedorf, Switzerland). Cytotoxicity (cell death) was measured by using the following formula: Celldeath(%)=sampleOD−controlOD/controlOD100
(§2) This assay was performed in triplicates in three independent experiments. The cytotoxicity property of Dis was presented as IC50 value.

caspase 3/7 = assay: Caspase-Glo 3/7 bioluminescent assay; format: cell-based, human; conditions: HCT-116, 24 h, 48 h, 72 h, time dependent
Procedure: To assess the effect of Dis on caspase cascades in treated cells, activities of caspase-Glo 3/7, caspase-Glo 8 and caspase-Glo 9 assays (Promega, Madison, WI, USA) were performed. Briefly, HCT-116 cells with the density of 10^4 cells/well were seeded in 96 well-plates. Cells were treated with Dis for 24 h, 48 h and 72 h. This assay was performed in triplicates for each time point. A total of 6 wells were preserved for samples without cells but with media and reagents as the blank samples, and for the untreated cells as negative control. At the end of incubation time, 100 µl caspase-glo mixture were added to each well and incubated for 1 h in the dark according to the manufacturer’s instructions. Optical density was measured via multimode microplate reader (Tecan Infinite, Männedorf, Switzerland).

HCT-116 cells [1] = assay: NanoString nCounter gene expression profiling; format: cell-based, human
Procedure: Gene expressions of the cancer canonical pathways were measured by NanoString nCounter. HCT-116 cells were treated with Dis for 48 h and total RNA were extracted by using RNeasy Mini Kit (QiAgen, Hilden, Germany) according to the manufacture’s protocol. Concentrations of RNA were checked through NanoDrop 2000C (Thermo Scientific™, Pittsburgh, PA, USA). Pancancer pathways panel on Nanostring nCounter system (Nanostring Technologies, Inc., Seattle, WA, USA) were used to investigate the gene expression profile of cancer pathways. A total of 770 genes were investigated and compared between Dis treated and untreated cells. The list of investigated genes is provided as supplementary data (Table S1). RNA was hybridized, purified and immobilized before being aligned on the nCounter cartridge and introduced to nCounter.
Digital Analyzer was utilized for data collection according to the manufacturer’s instruction. Briefly, RNA samples were added to the master mix contain hybridization buffer and reporter CodeSet. Capture ProbeSet was added to this mixture and introduced to pre-heated 65 °C thermal cycler for 16 h incubation. After removing the unbound probe, target/probe were immobilized and aligned on the nCounter Cartridge. nCounter digital analyzer was used to collect the nCounter cartridge data and data were analyzed using nSolver 3.0 analysis software. Significant genes were choose based on the false discovery rate (FDR) <0.05 and log2 fold change ≥ ± 0.5 supplementary data (Figure S1).

HCT-116 cells [2] = assay: Multiple cytotoxicity assay (Cellomics multiparameter cytotoxicity 3 kit); format: cell-based, human; conditions: HCT-116, Dis 3.58 µg/ml
Procedure: Cellomics multiparameter cytotoxicity 3 kit (Thermo Scientific™, Pittsburgh, PA, USA) was used to investigate the vital apoptotic events in HCT-116 cells in the presence of Dis. Cytotoxicity 3 assay was used to provide information about the changes in nuclear morphology, cell membrane integrity, cytochrome C release and mitochondrial outer membrane permeabilization (MOMP). HCT-116 cells were seeded in 24 well-plate and covered by a cover slide followed by treatment with Dis for 24 h, 48 h and 72 h. Treated cells were stained with YoYo dye (life technology, CA, USA) and Mitotracker dye (life technology, CA, USA) followed by fixation and blocking procedures according to the manufacture’s protocol. Primary cytochrome C (Thermo Scientific™, Pittsburgh, PA, USA) antibody and secondary DyLight 650 (Thermo Scientific™, Pittsburgh, PA, USA) were added to each well and incubated for 1 h in the dark. Hoechst 33342 dye (Thermo Scientific™, Pittsburgh, PA, USA) was added in the last step to stain the nuclei of the cells. Cells were washed and cover slides were transferred on the slide and introduced to confocal Leica TCS SP5 II microscope (Leica Microsystems, Mannheim, Germany). Intensity of each dye was measured by using LAS X software.

HepG-2 = test system: HepG-2; design: method as in PMID 19424633, PMID 27176768, PMID 26847170, PMID 20183323; conditions: HepG-2, 24 h treatment; ref [10],[13],[15],[47]; cited from earlier work
HT-29 cells = assay: MTT cytotoxicity assay, HT-29; format: cell-based, human; conditions: for IC50: Homo sapiens, MTT
Procedure: [Worded in the source for another cell line; this cell line is reported under the same test.] as §1, §2

## COc1ccc(-c2cc(=O)c3c(O)cc(O)cc3o2)cc1O [Dis, Diosmetin]
CCD-841 cells; 24 h
  IC50: 236 ± 9.99 µg/mL (≈ 788 µM)
CCD-841 cells; 48 h
  IC50: 51.95 ± 0.11 µg/mL (≈ 173 µM)
CCD-841 cells; 72 h
  IC50: 40.5 ± 9.99 µg/mL (≈ 135 µM)
Caspase 3/7
  cleavage of caspase 3/7: significantly increased
HCT-116 cells [1]; HCT-116, Dis treated
  gene expression of NF-ƙB inhibitor (iƙb-α): elevates
HCT-116 cells [1]; gene Fubp1, HCT-116, Dis 48 h vs untreated
  Log2 fold change, Fubp1: −0.5
HCT-116 cells [1]; gene Prkar2b, HCT-116, Dis 48 h vs untreated
  Log2 fold change, Prkar2b: −1.6
HCT-116 cells [1]; gene bax, HCT-116, Dis 48 h vs untreated
  Log2 fold change, bax: 0.5
HCT-116 cells [1]; gene bmp8a, HCT-116, Dis 48 h vs untreated
  Log2 fold change, bmp8a: −2.2
HCT-116 cells [1]; gene ccna2 (cyclin A), HCT-116, Dis 48 h vs untreated
  Log2 fold change, ccna2 (cyclin A): −0.6
HCT-116 cells [1]; gene ccnb1 (cyclin B), HCT-116, Dis 48 h vs untreated
  Log2 fold change, ccnb1 (cyclin B): −0.5
HCT-116 cells [1]; gene cdc7, HCT-116, Dis 48 h vs untreated
  Log2 fold change, cdc7: −0.8
HCT-116 cells [1]; gene cdc25, HCT-116, Dis 48 h vs untreated
  Log2 fold change, cdc25: −0.6
HCT-116 cells [1]; gene cdkn1a (p21), HCT-116, Dis 48 h vs untreated
  Log2 fold change, cdkn1a (p21): 1.5
HCT-116 cells [1]; gene fas, HCT-116, Dis 48 h vs untreated
  Log2 fold change, fas: 0.8
HCT-116 cells [1]; gene gadd45, HCT-116, Dis 48 h vs untreated
  Log2 fold change, gadd45: 0.8
HCT-116 cells [1]; gene h2afx, HCT-116, Dis 48 h vs untreated
  Log2 fold change, h2afx: −0.9
HCT-116 cells [1]; gene h3f3a (h2a), HCT-116, Dis 48 h vs untreated
  Log2 fold change, h3f3a (h2a): −0.9
HCT-116 cells [1]; gene hdac1, HCT-116, Dis 48 h vs untreated
  Log2 fold change, hdac1: −0.5
HCT-116 cells [1]; gene hdac2, HCT-116, Dis 48 h vs untreated
  Log2 fold change, hdac2: −0.6
HCT-116 cells [1]; gene hdac5, HCT-116, Dis 48 h vs untreated
  Log2 fold change, hdac5: −2.6
HCT-116 cells [1]; gene hells, HCT-116, Dis 48 h vs untreated
  Log2 fold change, hells: −0.6
HCT-116 cells [1]; gene hist1h3b, HCT-116, Dis 48 h vs untreated
  Log2 fold change, hist1h3b: −1.2
HCT-116 cells [1]; gene hist1h3h, HCT-116, Dis 48 h vs untreated
  Log2 fold change, hist1h3h: −1.5
HCT-116 cells [1]; gene hspb1 (hsp27), HCT-116, Dis 48 h vs untreated
  Log2 fold change, hspb1 (hsp27): −2.2
HCT-116 cells [1]; gene id1, HCT-116, Dis 48 h vs untreated
  Log2 fold change, id1: −0.5
HCT-116 cells [1]; gene id2, HCT-116, Dis 48 h vs untreated
  Log2 fold change, id2: −2.0
HCT-116 cells [1]; gene mad2l2, HCT-116, Dis 48 h vs untreated
  Log2 fold change, mad2l2: −0.6
HCT-116 cells [1]; gene mcm2, HCT-116, Dis 48 h vs untreated
  Log2 fold change, mcm2: −0.6
HCT-116 cells [1]; gene mcm4, HCT-116, Dis 48 h vs untreated
  Log2 fold change, mcm4: −0.6
HCT-116 cells [1]; gene mcm7, HCT-116, Dis 48 h vs untreated
  Log2 fold change, mcm7: −0.6
HCT-116 cells [1]; gene msh2, HCT-116, Dis 48 h vs untreated
  Log2 fold change, msh2: −0.7
HCT-116 cells [1]; gene nbn, HCT-116, Dis 48 h vs untreated
  Log2 fold change, nbn: −0.5
HCT-116 cells [1]; gene pcna, HCT-116, Dis 48 h vs untreated
  Log2 fold change, pcna: −0.6
HCT-116 cells [1]; gene pole2, HCT-116, Dis 48 h vs untreated
  Log2 fold change, pole2: −1.4
HCT-116 cells [1]; gene pttg2, HCT-116, Dis 48 h vs untreated
  Log2 fold change, pttg2: −0.9
HCT-116 cells [1]; gene rad21, HCT-116, Dis 48 h vs untreated
  Log2 fold change, rad21: −0.8
HCT-116 cells [1]; gene rbx1, HCT-116, Dis 48 h vs untreated
  Log2 fold change, rbx1: −1.2
HCT-116 cells [1]; gene setd2, HCT-116, Dis 48 h vs untreated
  Log2 fold change, setd2: 0.7
HCT-116 cells [1]; gene sfn (stratifin), HCT-116, Dis 48 h vs untreated
  Log2 fold change, sfn (stratifin): 0.6
HCT-116 cells [1]; gene sin3, HCT-116, Dis 48 h vs untreated
  Log2 fold change, sin3: −0.5
HCT-116 cells [1]; gene smad9, HCT-116, Dis 48 h vs untreated
  Log2 fold change, smad9: −2.7
HCT-116 cells [1]; gene smc3, HCT-116, Dis 48 h vs untreated
  Log2 fold change, smc3: −0.7
HCT-116 cells [1]; gene stmn1, HCT-116, Dis 48 h vs untreated
  Log2 fold change, stmn1: −1.5
HCT-116 cells [1]; gene tnfrsf10b, HCT-116, Dis 48 h vs untreated
  Log2 fold change, tnfrsf10b: 0.8
HCT-116 cells [1]; gene ttk, HCT-116, Dis 48 h vs untreated
  Log2 fold change, ttk: −1.0
HCT-116 cells [1]; gene ubb, HCT-116, Dis 48 h vs untreated
  Log2 fold change, ubb: −0.9
HCT-116 cells [2]
  Cytochrome C release: releases of Cytochrome C from mitochondria to cytosol
HCT-116 cells [2]; Mitotracker uptake
  mitochondrial membrane potential: losses of the mitochondrial membrane potential
HCT-116 cells [2]; YoYo dye
  cell permeability: increases
HepG-2
  IC50: 12 µg/mL (≈ 40 µM)
HT-29 cells; HT-29, 24 h
  IC50: 44.5 ± 1.75 µg/mL (≈ 148 µM)
HT-29 cells; HT-29, 48 h
  IC50: 17.6 ± 0.61 µg/mL (≈ 58.4 µM)
HT-29 cells; HT-29, 72 h
  IC50: 11.46 ± 0.1 µg/mL (≈ 38.2 µM)
HT-29 cells; IC50 CCD-841 / IC50 HT-29, 24 h
  Selectivity Index (SI): 5.31
HT-29 cells; IC50 CCD-841 / IC50 HT-29, 48 h
  Selectivity Index (SI): 2.96
HT-29 cells; IC50 CCD-841 / IC50 HT-29, 72 h
  Selectivity Index (SI): 3.53

Source: PMC6435658, “Investigation into the Molecular Mechanisms underlying the Anti-proliferative and Anti-tumorigenesis activities of Diosmetin against HCT-116 Human Colorectal Cancer” (Scientific Reports, 2019)
